Measurements taken from PMC9653258, “NDUFS3 knockout cancer cells and molecular docking reveal specificity and mode of action of anti-cancer respiratory complex I inhibitors” (Open Biology, 2022).
Read-outs that look alike come from different tables or passages of the source.

Legend:
[1] = tested on: mitochondrial respiration of SKOV3 cells; assay: Microrespirometry (Seahorse XFe, oxygen consumption rate); assay type: cell-based, human; settings: for IC50: Homo sapiens, read-out: IC50 (residual OCR, concentration-response)
Protocol: (§1) Mitochondrial respiration was measured using the protocol described for the Seahorse XFe Cell Mito Stress Test Kit (Agilent #103015-100) following the manufacturer instructions. Briefly, 12 × 10^3 cells/well (SKOV3, HCT116) and 8 × 10^3 (B16-F10) were seeded in 80 µl of DMEM medium into XFe96 cell culture plates and incubated for 48 h (HCT116) and for 24 h (SKOV3, B16-F10) at 37°C and 5% CO2. Complete growth medium was replaced with 180 µl of XF medium (Agilent #103575-100) supplemented with 10 mM glucose, 1 mM sodium pyruvate, 2 mM L-glutamine, at pH 7.4. For temperature and pH equilibration, cells were incubated at 37°C for 30 min. Three oxygen consumption rate (OCR) baseline measurements were followed by injection of either vehicle or different concentrations of CI-inhibitors and subsequent measurements; 1 µM oligomycin, carbonyl cyanide-p-trifluoromethoxyphenylhydrazone (FCCP), 1 µM rotenone and 1 µM antimycin A were sequentially added to each well. FCCP concentrations were previously optimized by titration and were 0.5 µM for SKOV3, 0.75 µM for HCT116 and 1 µM for B16-F10, respectively. At the end of the assay, medium was removed and sulforhodamine B (SRB) assay was performed to determine protein content for normalization. Briefly, plates were incubated with 10% trichloroacetic acid (TCA) for 1 h at 4°C to fix the cells. Five washes in water were carried out. Once the plates were dry, proteins were stained by incubation with 0.4% SRB for 30 min at RT. SRB was solubilized with 10 mM Tris and absorbance at 560 nm was determined using a Victor2 plate reader (Perkin-Elmer). Data (pmol min^−1) were normalized to blank corrected SRB absorbance.

[2] = tested on: mitochondrial respiration of HCT116 cells; assay: as above; assay type: cell-based, human; settings: for IC50: Homo sapiens, read-out: IC50 (residual OCR, concentration-response)
Protocol: as §1

[3] = tested on: B16-F10^−/− cells (NDUFS3 knockout); assay: Proliferation of CI-deficient cells, Incucyte; assay type: cell-based, murine
From the text: (§2) Human ovarian cancer cell line SKOV3 and murine melanoma cell line B16-F10 were purchased from ATCC (#HTB-77; #CRL-6475, Manassas, VA, USA). Human colorectal cancer cell line HCT116 was authenticated using […]dentifiler kit (Applied Biosystem #4322288) and its STR profile corresponded to the putative background. Mitochondrial DNA (mtDNA) was sequenced by Sanger sequencing as previously described, to ensure wild-type genotype. The results are available upon request. NDUFS3 knockout cells, referred as SKOV3^−/−, HCT116^−/− and B16-F10^−/−, were generated by genome editing as previously reported. Briefly, CRISPR/Cas9 system was used to introduce a frameshift mutation in NDUFS3 gene in SKOV3 human cell line and Ndufs3 gene in B16-F10 murine cell line, using exon 2 targeting guide […] and exon 3 targeting guide […], respectively. […]
(§3) Cell proliferation and morphology were assessed using the Incucyte Live-imaging System (Sartorius) and proliferation was quantified through time-lapse image acquisition and metrics application.
(§4) Briefly, 2.5 × 10^3 SKOV3/well, 2 × 10^3 HCT116/well and 1 × 10^3 B16-F10/well were seeded in 96-well plates in high-glucose DMEM and incubated overnight to allow cells attachment. […] Cell growth was evaluated by Incucyte system phase contrast software (confluence metrics), which provides an occupied area average (% of confluence) per image/per well. […]

SKOV3 cells = assay: Apoptotic cell death, Incucyte Caspase-3/7 green dye; assay type: cell-based, human; settings: 72 h
Protocol: (§7) Cells (SKOV3, HCT116 and B16-F10) were seeded in a 96-wells plate in high glucose DMEM, as described above. Drugs were added after 24 h, in presence of 5 µM Incucyte Caspase-3/7 green dye following the manufacturer's protocol. Then, the plate was placed in Incucyte for 72 h and images (4/well) were captured at 10× magnification with 2 h intervals, both in phase contrast and fluorescent green channel. For each cell line, staurosporine (100 nM, Sigma-Aldrich #S4400) treatment was performed as a positive control. For each experimental condition, the masks for fluorescent objects identification were set by the Incucyte integrated analysis software. Total and green positive cells were counted at 10× magnification in three fields of view per condition, and data are expressed as percentage of apoptotic cells [(number of green cells/number of total cells) × 100].

[4] = tested on: HCT116 cells (NDUFS3^+/+); assay: Cell proliferation, Incucyte live-imaging (confluence); assay type: cell-based, human
Protocol: as §3
(§5) Briefly, 2.5 × 10^3 SKOV3/well, 2 × 10^3 HCT116/well and 1 × 10^3 B16-F10/well were seeded in 96-well plates in high-glucose DMEM and incubated overnight to allow cells attachment. For specificity assays, NDUFS3 wild-type and knockout cells were seeded simultaneously, and the same confluence mask was applied for subsequent analysis. […] Cell growth was evaluated by Incucyte system phase contrast software (confluence metrics), which provides an occupied area average (% of confluence) per image/per well. For data in electronic supplementary material, figures S1 and S2, the analysis was performed using % of confluence metric per scan normalized on treatment starting point (time 0). For data in figures 1 and 2, the percentage of cell confluence normalized on time 0 for each inhibitor's treatment was subsequently normalized to untreated control. At least three replicate experiments were performed for each treatment condition.

SKOV3 cells (NDUFS3^+/+) = assay: as above; assay type: cell-based, human
Protocol: as §3, §5

[5] = tested on: B16-F10 cells (NDUFS3^+/+); assay: as above; assay type: cell-based, murine
Protocol: as §3, §5

[6] = tested on: mitochondrial respiration of SKOV3, HCT116 and B16-F10 cells; assay: Microrespirometry (Seahorse XFe, OCR), stated across cell models; assay type: cell-based, human, murine
Protocol: as §1

[7] = tested on: SKOV3^−/− cells (NDUFS3 knockout); assay: Proliferation of CI-deficient cells, Incucyte; assay type: cell-based, human
From the text: (§6) Human ovarian cancer cell line SKOV3 and murine melanoma cell line B16-F10 were purchased from ATCC (#HTB-77; #CRL-6475, Manassas, VA, USA). Human colorectal cancer cell line HCT116 was authenticated using […]dentifiler kit (Applied Biosystem #4322288) and its STR profile corresponded to the putative background. Mitochondrial DNA (mtDNA) was sequenced by Sanger sequencing as previously described, to ensure wild-type genotype. The results are available upon request. NDUFS3 knockout cells, referred as SKOV3^−/−, HCT116^−/− and B16-F10^−/−, were generated by genome editing as previously reported. Briefly, CRISPR/Cas9 system was used to introduce a frameshift mutation in NDUFS3 gene in SKOV3 human cell line and Ndufs3 gene in B16-F10 murine cell line, using exon 2 targeting guide […] and exon 3 targeting guide […], respectively. Instead, zinc finger endonuclease system was used to obtain HCT116 NDUFS3 knockout. Plasmids containing cDNA of NDUFS3-targeted zinc finger endonucleases (Sigma-Aldrich #CKOZFND15186) were purified and transcribed in vitro. The pool of zinc finger endonucleases mRNAs was transfected into 70% confluent HCT116 cells. The resulting heterozygous clones were subjected to a subsequent second transfection with NDUFS3 zinc finger pool and led to the selection of homozygous frameshift NDUFS3 mutants.
as §3, §5

[8] = tested on: HCT116^−/− cells (NDUFS3 knockout); assay: Proliferation of CI-deficient cells, Incucyte; assay type: cell-based, human
From the text: as §6, §3, §5

[9] = tested on: mitochondrial respiration of B16-F10 cells; assay: Microrespirometry (Seahorse XFe, oxygen consumption rate); assay type: cell-based, murine; settings: for IC50: Mus musculus
Protocol: as §1

HCT116 cells = assay: Apoptotic cell death, Incucyte Caspase-3/7 green dye; assay type: cell-based, human; settings: 72 h
Protocol: as §7

[10] = tested on: NDUFS3^+/+ and NDUFS3^−/− SKOV3, HCT116 and B16-F10 cells; assay: Specificity assay: proliferation of NDUFS3^+/+ versus NDUFS3^−/− cells, Incucyte; assay type: cell-based, human, murine; settings: EVP 4593 100 nM (SKOV3, HCT116), 200 nM (B16-F10); BAY 87-2243 1 µM, 20 µM (B16-F10); IACS-010759 1 µM, 5 µM (B16-F10); 72 h
Protocol: as §3, §5

[11] = tested on: SKOV3, HCT116 and B16-F10 cells; assay: Apoptotic cell death, Incucyte Caspase-3/7 green dye (all cell models); assay type: cell-based, human, murine; settings: 72 h
Protocol: as §7

[12] = tested on: NDUFS3^−/− cells (SKOV3^−/−, HCT116^−/−, B16-F10^−/−); assay: Proliferation of CI-deficient cells, Incucyte (all three models); assay type: cell-based, human, murine; settings: tested concentrations (up to 1 µM)
From the text: as §2, §3, §4

[13] = tested on: CI (respiratory complex I) in permeabilized SKOV3, HCT116 and B16-F10 cells; assay: Mitochondrial ATP synthesis rate, CI-driven, digitonin-permeabilized cells (luciferin/luciferase); assay type: cell-based, human, murine; settings: optimized concentrations; all the investigated cell models
Protocol: The rate of mitochondrial ATP synthesis was measured in digitonin-permeabilized CI competent cells by using a luciferin/luciferase assay as previously described with minor modifications [47]. Chemiluminescence was determined as a function of time with a luminometer (Sirius L Tube, Titertek-Berthold, Pforzheim, Germany). After trypsinization, cells (10 × 10^6 ml^−1) were suspended in a buffer containing 150 mM KCl, 25 mM Tris–HCl, 2 mM EDTA (ethylenediaminetetraacetic acid), 0.1% bovine serum albumin, 10 mM potassium phosphate, 0.1 mM MgCl2, pH 7.4, kept at room temperature for 15 min, then incubated with 50 µg ml^−1 digitonin until 90–100% of cells were positive to Trypan Blue staining. Aliquots of 3 × 10^5 permeabilized cells were incubated in the same buffer in the presence of the adenylate kinase inhibitor P1,P5-di(adenosine-5′) pentaphosphate (0.1 mM, Sigma-Aldrich #A2754) and 10 µl of the luciferin/luciferase assay reagent (Sigma-Aldrich #FLAAM-5VL). Then, ATP synthesis rate was determined after the sequential addition of the following substrates and inhibitors. […] Then, CI inhibitors were added at the optimized concentrations that completely suppress maximal respiration previously determined by titration with Seahorse. […]

[14] = metformin, dose-dependent over the tested concentrations
[15] = 1 µM (highest concentration applied)
[16] = range over SKOV3, HCT116, B16-F10, read-out: IC50 of mitochondrial respiration (range over cell lines)
[17] = B16-F10, figure 4a, read-out: IC50 (residual OCR, concentration-response)

SMILES: CN(C)C(=N)NC(=N)N.Cl [metformin, 1,1-dimethylbiguanide hydrochloride]
- IC50 ([1]; SK-OV-3, pre-incubated 24 h before OCR measurement, figure 4a): 554 µM
- concentration abolishing basal OCR ([1]; pre-incubation for 24 h): 2 mM
- IC50 ([2]; HCT-116, pre-incubated 24 h before OCR measurement, figure 4a): 225 µM
- concentration abolishing basal OCR ([2]; pre-incubation for 24 h): 2 mM
- concentrations at which NDUFS3^−/− cell proliferation was reduced (CI-independent antiproliferative effect) ([3]; metformin, B16-F10^−/−, only at high concentrations): 10 to 20 mM
- apoptotic cell death (portion of the cells) (SKOV3 cells; 2.5 mM): 2.8%
- reduction of cell growth after 72 h [4, 14]: 46–77%
- reduction of cell growth after 72 h (SKOV3 cells (NDUFS3^+/+); [14]): 58–90%
- reduction of cell growth after 72 h [5, 14]: 24–62%
- decrease of basal respiration (OCR) ([6]; acute injection, only at the highest concentration (50 mM), independently from the cell model): 25–35%
- concentration abolishing maximal respiration ([6]; cells pre-incubated (24 h)): 50 mM
- IC50 ([6]; range over SKOV3, HCT116, B16-F10, 24 h pre-incubation, read-out: IC50 of mitochondrial respiration (range over cell lines)): 225 to 1340 µM
- concentrations at which NDUFS3^−/− cell growth was reduced (CI-independent antiproliferative effect) ([7]; metformin, SKOV3^−/−): all the tested concentrations
- concentrations at which NDUFS3^−/− cell growth was reduced (CI-independent antiproliferative effect) ([8]; metformin, HCT116^−/−): all the tested concentrations
- IC50 ([9]; B16-F10, pre-incubated 24 h before OCR measurement, figure 4a, read-out: IC50 (residual OCR, concentration-response)): 1340 µM
- concentration abolishing basal OCR ([9]; pre-incubation for 24 h, B16-F10): 10 mM
- apoptotic cell death (HCT116 cells; 2.5 mM): comparable to the untreated control

SMILES: Cc1nc(-c2nc(-c3ccc(OC(F)(F)F)cc3)no2)nn1Cc1cccc(N2CCC(S(C)(=O)=O)CC2)c1 [IACS-010759]
- lowest concentration that completely inhibited mitochondrial respiration (abolished OCR) [1]: 1 µM
- lowest concentration that completely inhibited mitochondrial respiration (abolished OCR) [2]: 1 µM
- effect on cell proliferation at optimized concentrations, NDUFS3^+/+ versus CI-defective counterparts [10]: reduced cell proliferation of NDUFS3^+/+ cells only
- concentration required to suppress maximal OCR (abolished OCR) ([9]; B16-F10): 5 µM

SMILES: Cc1cc(-c2nc(-c3ccc(OC(F)(F)F)cc3)no2)nn1Cc1ccnc(N2CCN(C3CC3)CC2)c1 [BAY 87-2243, 1-cyclopropyl-4-(4-[(5-methyl-3-{3-[4-(trifluoromethoxy)phenyl]-1,2,4-oxadiazol-5-yl)-1H-pyrazol-1-yl)methyl]pyridin-2-yl) piperazine]
- lowest concentration that completely inhibited mitochondrial respiration (abolished OCR) [1]: 1 µM
- IC50 ([1]; SK-OV-3, figure 4a): 0.115 µM
- lowest concentration that completely inhibited mitochondrial respiration (abolished OCR) [2]: 1 µM
- IC50 ([2]; HCT-116, figure 4a): 0.172 µM
- reduction of cell growth after 72 h treatment [4, 15]: 20%
- reduction of cell growth after 72 h treatment (SKOV3 cells (NDUFS3^+/+); [15]): 38%
- apoptosis (percentage of cells) ([11]; tested BAY 87-2243 concentrations): very low percentage of cells
- reduction of cell growth after 72 h treatment [5, 15]: 28%
- IC50 ([6]; human models (SKOV3, HCT116), read-out: IC50 (mitochondrial respiration)): 0.115 to 0.171 µM
- IC50 [6, 16]: 0.12 to 7 µM
- effect on cell proliferation at optimized concentrations, NDUFS3^+/+ versus CI-defective counterparts [10]: reduced cell proliferation of NDUFS3^+/+ cells only
- effect on CI-deficient cancer cell growth [12]: unaffected
- effect on CI-driven ATP synthesis [13]: strongly inhibit
- concentration required to suppress maximal OCR (abolished OCR) ([9]; B16-F10): 20 µM
- IC50 [9, 17]: 7.04 µM
- IC50 ([9]; murine B16-F10 cells, read-out: IC50 (mitochondrial respiration)): 7 µM
- fold less efficient in murine B16-F10 cells compared to human models ([9]; ratio of IC50, B16-F10 versus human models): 50 fold

SMILES: Nc1ccc2ncnc(NCCc3ccc(Oc4ccccc4)cc3)c2c1 [EVP 4593, N4-[2-(4-phenoxyphenyl)ethyl]-4,6-quinazolinediamine]
- lowest concentration able to fully curb mitochondrial respiration [1]: 100 nM
- IC50 ([1]; SK-OV-3, figure 4a): 0.0111 µM
- lowest concentration able to fully curb mitochondrial respiration [2]: 100 nM
- IC50 ([2]; HCT-116, figure 4a): 0.013 µM
- concentration causing reduction of NDUFS3^−/− cell growth ([3]; B16-F10 NDUFS3^−/−): 20 µM
- apoptotic cell death (SKOV3 cells; 20 µM): 24.6%
- decrease in cell proliferation after 72 h ([4]; 2.5–20 µM): 52–74%
- decrease in cell proliferation after 72 h (SKOV3 cells (NDUFS3^+/+); 2.5–20 µM): 49–62%
- apoptotic cell death ([11]; 2.5 µM): modest percentage of dead cells
- massive apoptotic cell death ([11]; optimized concentration (100 nM SKOV3 and HCT116, 200 nM B16-F10)): not detected
- decrease in cell proliferation after 72 h ([5]; 2.5–20 µM): 66–84%
- concentration range completely suppressing mitochondrial respiration ([6]; in our models (SKOV3, HCT116, B16-F10)): 100 to 200 nM
- IC50 [6, 16]: 0.011 to 0.03 µM
- concentration causing reduction of NDUFS3^−/− cell growth ([7]; SKOV3 NDUFS3^−/−): 20 µM
- concentration causing reduction of NDUFS3^−/− cell growth ([8]; HCT116 NDUFS3^−/−): 10 to 20 µM
- effect on cell proliferation at optimized concentrations, NDUFS3^+/+ versus CI-defective counterparts [10]: reduced cell proliferation of NDUFS3^+/+ cells only
- effect on CI-driven ATP synthesis [13]: strongly inhibit
- lowest concentration able to fully curb mitochondrial respiration ([9]; B16-F10): 200 nM
- IC50 [9, 17]: 0.0299 µM
- apoptotic cell death (HCT116 cells; 20 µM): 77.6%
